Measured values taken from patent publication US20240206516A1, “SYSTEMS AND METHODS FOR SUGAR-REDUCTION AND/OR FIBER PRODUCTION FOR FOOD AND OTHER APPLICATIONS” (President and Fellowa of Harvard College, priority 2021, published 2024).

Experiments:
glucose oxidase = glucose oxidase (Aspergillus niger, UniProt P13006); assay: Enzymatic activity of glucose oxidase in the presence of polyphenol and metal ions at different pH; format: biochemical
Method: Enzymatic activity of glucose oxidase was tested in the presence of polyphenol and metal ions from minerals at different pH. Polyphenol is known to be able to bind to enzymes and also form metal coordination with the metal ions.
The enzyme (e.g, glucose oxidase) was combined with different polyphenols (e.g., tannic acid, EGCG) and metal ions from different minerals (e.g., CaCl2, FeCl3, MgCl2, ZnCl2) in buffer solutions having two pH conditions. A buffer having a first pH condition of 3.5 was used to simulate juice buffer. A buffer having a second pH condition of 7 was used to simulate intestinal buffer. The effect of bile salt (an intrinsic compound found in the intestine) on enzymatic activity of glucose oxidase was also tested by incorporating it into the simulated pH 7 intestinal buffer. It should be noted that the enzyme in FIG. 4 is not limited to glucose oxidase, as described in this example. Any appropriate enzymes described elsewherein herein (e.g., inulosucrase, etc.) may be employed using the experimental design in FIG. 4 for sugar reduction.
The enzyme activity of glucose oxidase was measured by measuring the capability of glucose oxidase to convert glucose in different experimental conditions. […] It was hypothesized that at a pH of 7, polyphenol formed metal coordination complexes with metal ions and thus dissociated from the glucose oxidase.
A similar trend in […] was observed when a different polyphenol, EGCE, was used instead of tannic acid.

inulosucrase = biological target: T1, inulosucrase (Lactobacillus gasseri, UniProt D3WYV9); assay: Inhibition of inulosucrase enzymatic activity by tannic acid; format: biochemical
T1 sequence (D3WYV9 37-761): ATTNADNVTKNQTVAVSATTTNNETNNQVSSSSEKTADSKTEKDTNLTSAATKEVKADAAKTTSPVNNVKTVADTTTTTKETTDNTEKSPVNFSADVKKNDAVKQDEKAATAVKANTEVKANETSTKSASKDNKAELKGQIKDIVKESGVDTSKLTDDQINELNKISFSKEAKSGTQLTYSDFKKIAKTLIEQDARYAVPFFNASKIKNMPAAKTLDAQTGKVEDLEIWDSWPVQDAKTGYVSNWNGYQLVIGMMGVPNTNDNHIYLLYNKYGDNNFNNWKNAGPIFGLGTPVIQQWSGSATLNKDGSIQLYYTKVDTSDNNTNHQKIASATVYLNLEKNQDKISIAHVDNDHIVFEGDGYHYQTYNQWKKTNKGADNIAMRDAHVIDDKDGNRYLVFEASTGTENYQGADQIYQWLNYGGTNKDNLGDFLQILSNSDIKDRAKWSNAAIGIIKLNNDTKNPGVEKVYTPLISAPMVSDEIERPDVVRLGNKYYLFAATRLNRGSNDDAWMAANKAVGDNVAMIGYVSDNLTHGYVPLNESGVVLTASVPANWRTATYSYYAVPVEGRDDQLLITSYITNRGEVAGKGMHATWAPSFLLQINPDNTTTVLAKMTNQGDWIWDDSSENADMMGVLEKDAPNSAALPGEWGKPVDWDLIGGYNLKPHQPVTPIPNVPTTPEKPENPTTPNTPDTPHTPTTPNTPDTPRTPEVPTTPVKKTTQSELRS
Method: In addition to encapsulating the inulosucrase-nanocellulose complex, an inhibitor (e.g., tannic acid) could also be encapsulated together with the complex. The amount of tannic acid necessary to inhibit enzymatic activity of inulosucrase (while attached to nanocellulose) is shown in FIG. 19. […] The effect of inulosucrase in various food products were studied. Free inulosucrase (not attached to any substrate) was added to a beverage (e.g., Capri San®) and the concentration of various saccharides was measured after 10 minutes at room temperature and 37° C. (FIG. 20A). […] Additional data for other food products (e.g., chocolates) are illustrated in FIGS. 20B-20C.
The effect of tannic acid on enzymatic activity in various food products at different pH conditions was studied. Tannic acid was combined with an enzyme (e.g., inulosucrase) at 1:1 molar ratio to form tannic acid-enzyme (TA-Enz) complex. The TA-Enz complex was prepared at various pH levels (e.g., 3.5, 5.5) and tannic acid concentrations (e.g., 10 mM, 30 mM, 50 mM). The effect of TA-Enz complex in sucrose solution and apple juice was compared to that of free enzyme (enzyme not complexed with tannic acid). Residual sucrose of sucrose solution and apple juice was first monitored in the presence of TA-Enz complexes after an incubation time of 15 minutes.
Residual sucrose of sucrose solution and apple juice was also monitored in the presence of TA-Enz complexes after an incubation time of 24 hours (FIGS. 23A-23B).

[1] = pH 3.5 (simulated juice buffer), polyphenol with Mg^+2 (from MgCl2)
[2] = pH 7 (simulated intestinal buffer), polyphenol with Mg^+2
[3] = pH 7 with bile salt (0.2 wt %), polyphenol with Mg^+2

glucose oxidase, sequence (P13006 17-605, species assumed): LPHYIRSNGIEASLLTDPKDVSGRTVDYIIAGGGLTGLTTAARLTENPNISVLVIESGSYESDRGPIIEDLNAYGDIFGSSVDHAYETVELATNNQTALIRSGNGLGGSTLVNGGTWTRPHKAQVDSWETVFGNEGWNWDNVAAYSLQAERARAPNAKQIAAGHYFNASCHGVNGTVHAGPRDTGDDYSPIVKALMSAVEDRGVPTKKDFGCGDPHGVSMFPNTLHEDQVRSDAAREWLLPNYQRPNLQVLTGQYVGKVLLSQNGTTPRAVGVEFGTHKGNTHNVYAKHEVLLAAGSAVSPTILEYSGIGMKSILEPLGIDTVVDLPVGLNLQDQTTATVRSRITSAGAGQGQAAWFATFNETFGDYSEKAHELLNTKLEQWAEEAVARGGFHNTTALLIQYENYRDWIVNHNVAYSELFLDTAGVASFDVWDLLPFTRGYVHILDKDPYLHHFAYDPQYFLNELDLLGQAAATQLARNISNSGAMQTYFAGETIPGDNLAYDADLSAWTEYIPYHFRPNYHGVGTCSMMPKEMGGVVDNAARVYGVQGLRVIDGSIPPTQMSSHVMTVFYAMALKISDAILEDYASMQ

SMILES	enzymatic activity of glucose oxidase (glucose oxidase; [1])	enzymatic activity of glucose oxidase (glucose oxidase; [2])	enzymatic activity of glucose oxidase (glucose oxidase; [3])	concentration at which glucose oxidase activity was significantly inhibited (glucose oxidase)	inulosucrase activity after polyphenol inhibition (inulosucrase; in the presence of bile salts)	pH-dependent inhibition and reactivation of enzymatic activity (inulosucrase; low pH ˜3.5 vs higher pH ˜6.8)	enzymatic activity of inulosucrase (attached to nanocellulose) (inulosucrase; with increase in tannic acid concentration)
O=C(O[C@@H]1Cc2c(O)cc(O)cc2O[C@@H]1c1cc(O)c(O)c(O)c1)c1cc(O)c(O)c(O)c1 [EGCE, Epigallocatechin gallate]	prohibited its enzymatic activity	partially recovered	further enzymatic activity was recovered				
O=C(OC[C@H]1O[C@@H](OC(=O)c2cc(O)c(O)c(OC(=O)c3cc(O)c(O)c(O)c3)c2)[C@H](OC(=O)c2cc(O)c(O)c(OC(=O)c3cc(O)c(O)c(O)c3)c2)[C@@H](OC(=O)c2cc(O)c(O)c(OC(=O)c3cc(O)c(O)c(O)c3)c2)[C@@H]1OC(=O)c1cc(O)c(O)c(OC(=O)c2cc(O)c(O)c(O)c2)c1)c1cc(O)c(O)c(OC(=O)c2cc(O)c(O)c(O)c2)c1 [tannic acid]	further inhibited	partially recovered	furthered recovered	1 µM	reactivated in the presence of bile salts	repeated inhibition of enzymatic activity at low pH (e.g., pH˜3.5) and reactivation of enzymatic activity at higher pH (e.g., pH˜6.8)	reduction in enzymatic activity
